The record followed here is US20120190666A1, “Heteroaryl Compounds as PIKK Inhibitors” (Amgen Inc., priority 2009, published 2012).

For the test, the system named is phosphorylation of Akt at Serine 473 in U87 MG cells. Briefly: pAkt AlphaScreen (U87 cell). The settings on record: Homo sapiens, U-87 MG, 2 h; pAkt at Serine 473, U87 MG cells, two hours with compound. Type of test: cell-based. The method, then: The pAkt AlphaScreen® assay (PerkinElmer, Waltham, Mass.) determines whether there is phosphorylation of Akt at Serine 473 by recruitment of a phosphospecific antibody. This assay was performed using U87 MG cells. The U87 growth media consists of MEM (Gibco, Carlsbad, Calif.) supplemented with 10% FBS (Gibco), 1× Non-Essential Amino Acids (Gibco,) and 1× Penicillin/Streptomycin/Glutamine (Gibco). The cells were maintained weekly using 0.05% Trypsin (Gibco) and replated in 150 mm TC— Treated Culture Dishes (Corning, Corning, N.Y.).
The first day of the assay, the adherent cells were trypsinized, media was added to the loose cells and cells were mixed to a homogenous mixture. 0.5 ml of the homogenous mixture was counted on the Beckman Coulter® Vi-Cell™ XR (Fullerton, Calif.). 50 frames of cells were counted and the number of viable cells was determined. The cells were then diluted to 0.25 million cells per ml, and centrifuged at 200 rcf for 5 minutes. The media was removed and the cells were reconstituted in fresh media for plating. The cells were plated at 20 μl per well on the PerkinElmer® FlexDrop PLUS in Low Volume 384 Well White Tissue Culture Plates (Corning) with a final cell density of 5K cells per well. The plates were incubated overnight at 37° Celsius, 5% CO2.
On the second day, the compound plates were prepared, the cells were treated with compound and the pAkt reaction mix was added to the cell lysate. 384 well compound plates were prepared containing 1 μl of compound per well starting at 5 mM and diluted 1:2 across the row, resulting in a 22 well serial dilution. 39 μl of growth media was added to the compound plate in rows 1-22 using the PerkinElmer® FlexDrop PLUS resulting in a DMSO concentration of 2.5%. The cell plates and diluted compound plates were put onto the VELOCITY11™ VPREP™ 384 ST where the compound plate was mixed and 5 μl of serially diluted compound or controls was added to the cell plate. The final concentration of the compounds was 25 μM serially diluted to 11.9 pM in 0.5% DMSO.
The cell plates were then incubated with compound for two hours at 37° C., 5% CO2. After two hours, the media in the cell plates was aspirated using the BioTek® ELx405HT plate washer (Winooski, Vt.) removing the majority of media and compound without disturbing the adherent U87 cells. The following assay reagents are components of the SureFire® Akt (Ser 473) Phosphorylation 50K Point Kit (TGR BioSciences, Adelaide, Austalia) and an IgG Detection Kit (PerkinElmer, Waltham, Mass.). 5 μl of 1× Lysis Buffer was added to each well using the PerkinElmer® FlexDrop PLUS. The plates were then incubated at room temperature on a shaker for ten minutes. The AlphaScreen® reaction was prepared under low light conditions (subdued or green light) including p-Aid (Ser 473) Reaction Buffer, Dilution Buffer, Activation Buffer, Acceptor Beads and Donor Beads at a ratio of 40:20:10:1:1 respectively. The AlphaScreen® reaction was added to the cell lysate at 6 μl per well using the PerkinElmer® FlexDrop PLUS. The plates were placed in a humid environment to reduce edge effects and incubated overnight at room temperature with restricted air flow in the dark.
On the final day of the experiment, the plates were read on the PerkinElmer® EnVision™ 2103 Multilable Reader using the standard AlphaScreen® readout. The POC is calculated and the data is analyzed to report the IC50 IP for pAkt at Serine 473.
Activity data for the compounds tested in the PI3K cell based Akt assay is provided in Table 1 under the column heading U87
A general note: Bead proximity is the source of the signal in Alpha formats.

As a reminder, the IC50 is the point on the concentration scale where inhibition reaches its midpoint. Take `CC(=O)Nc1cccc(-c2ccc3nc(Nc4cc[nH]n4)c(-c4nc(C)nc(N)n4)n3c2)c1` [Cpd 114, N-(3-(3-(4-amino-6-methyl-1,3,5-triazin-2-yl)-2-(1H-pyrazol-3-ylamino)imidazo[1,2-a]pyridin-6-yl)phenyl)acetamide]: the IC50 turned out to be 30 nM. The value for `COc1ccc(Nc2cc(C)nn2-c2cc(N)nc(C)n2)cn1` [Cpd 24, 6-(5-(6-methoxypyridin-3-ylamino)-3-methyl-1H-pyrazol-1-yl)-2-methylpyrimidin-4-amine] was 870 nM; that for `Cc1nc(N)nc(-c2c(Nc3cc[nH]n3)nc3cc(C4=CCN(C(=O)OC(C)(C)C)CC4)ccn23)n1` [Cpd 183, tert-butyl 4-(3-(4-amino-6-methyl-1,3,5-triazin-2-yl)-2-(1H-pyrazol-3-ylamino)imidazo[1,2-a]pyridin-7-yl)-3,6-dihydro-1(2H)-pyridinecarboxylate] was 760 nM.

With `Cc1nc(Nc2ccc(N3CCOC(C)C3)nn2)cc(-c2c(Nc3cc[nH]n3)nc3cccnn23)n1` (stereo not drawn) [Cpd 140, 3-(2-methyl-6-((6-(2-methyl-4-morpholinyl)-3-pyridazinyl)amino)-4-pyrimidinyl)-N-1H-pyrazol-3-ylimidazo[1,2-b]pyridazin-2-amine], the IC50 is 90 nM. Next, `CCOC(=O)c1cc(Nc2cc[nH]n2)n(-c2cc(N)nc(C)n2)n1` [Cpd 15, ethyl 5-(1H-pyrazol-3-ylamino)-1-(6-amino-2-methylpyrimidin-4-yl)-1H-pyrazole-3-carboxylate]: 110 nM; `CC(=O)NCc1ccc(-c2ccc3nc(Nc4cc[nH]n4)c(-c4nc(C)nc(N)n4)n3c2)cc1` [Cpd 100, N-(4-(3-(4-amino-6-methyl-1,3,5-triazin-2-yl)-2-(1H-pyrazol-3-ylamino)imidazo[1,2-a]pyridin-6-yl)benzyl)acetamide]: 10 nM. The value for `Cc1nc(NC(=O)N2CCN(C)CC2)cc(-c2c(Nc3cc[nH]n3)nc3cccnn23)n1` [Cpd 77, 4-methyl-N-(2-methyl-6-(2-(1H-pyrazol-3-ylamino)imidazo[1,2-b]pyridazin-3-yl)-4-pyrimidinyl)-1-piperazinecarboxamide] was 1640 nM; that for `Cc1nc(N)nc(-c2c(Nc3cc[nH]n3)nc3ccc(-c4cccc(NC(=O)C5CC5)c4)cn23)n1` [Cpd 115, N-(3-(3-(4-amino-6-methyl-1,3,5-triazin-2-yl)-2-(1H-pyrazol-3-ylamino)imidazo[1,2-a]pyridin-6-yl)phenyl)cyclopropanecarboxamide] was 40 nM. The value for `CNc1cc(-c2c(Nc3cc[nH]n3)nc3ccc(N4CCOCC4)nn23)nc(C)n1` [Cpd 72, 3-(2-methyl-6-(methylamino)-4-pyrimidinyl)-6-(4-morpholinyl)-N-1H-pyrazol-3-ylimidazo[1,2-b]pyridazin-2-amine] was 3 nM; that for `Cc1cc(Nc2cc[nH]n2)n(-c2cc(N)nc(C)n2)n1` [Cpd 18, 6-(5-(1H-pyrazol-3-ylamino)-3-methyl-1H-pyrazol-1-yl)-2-methylpyrimidin-4-amine] was 710 nM.

With `Cc1nc(N)cc(-c2c(Nc3cccc(N4CCN(C)CC4)c3)nc3cccnn23)n1` [Cpd 151, 3-(6-amino-2-methyl-4-pyrimidinyl)-N-(3-(4-methyl-1-piperazinyl)-phenyl)imidazo[1,2-b]pyridazin-2-amine], the concentration for half-maximal inhibition (IC50) is 5380 nM. The value for `Cc1nc(N)nc(-c2c(Nc3cc[nH]n3)nc3cc(OCCN4CCCC4)ccn23)n1` [Cpd 188] was 320 nM. Regarding `COCCOc1ccn2c(-c3nc(C)nc(N)n3)c(Nc3cc[nH]n3)nc2c1` [Cpd 185, 3-(4-amino-6-methyl-1,3,5-triazin-2-yl)-7-(2-methoxyethoxy)-N-1H-pyrazol-3-ylimidazo[1,2-a]pyridin-2-amine], the IC50 came to 50 nM. Next, `COCCOc1cnnc(Nc2cc(-c3c(Nc4ccc(NC(C)=O)cc4)nc4cccnn34)nc(C)n2)c1` [Cpd 53, N-(4-((3-(6-((5-(2-methoxyethoxy)-3-pyridazinyl)amino)-2-methyl-4-pyrimidinyl)imidazo[1,2-b]pyridazin-2-yl)amino)phenyl)acetamide]: 10 nM; `Cc1nc(-c2c(Nc3cccc(O)c3)nc3ccccn23)c2nc[nH]c2n1` [Cpd 2]: 50 nM; `Cc1nc(Nc2ccccc2F)cc(-c2c(Nc3cc[nH]n3)nc3cccnn23)n1` [Cpd 31, 3-(6-((2-fluorophenyl)amino)-2-methyl-4-pyrimidinyl)-N-1H-pyrazol-3-ylimidazo[1,2-b]pyridazin-2-amine]: 790 nM. The value for `Cc1nc(N)nc(-c2c(Nc3cc[nH]n3)nc3ccc(-c4ccc(C(=O)O)cc4C)cn23)n1` [Cpd 177, 4-(3-(4-amino-6-methyl-1,3,5-triazin-2-yl)-2-(1H-pyrazol-3-ylamino)imidazo[1,2-a]pyridin-6-yl)-3-methylbenzoic acid] was 170 nM; that for `Cc1nc(Nc2cc(OCC(F)(F)F)cnn2)cc(-c2c(Nc3cc[nH]n3)nc3cccnn23)n1` [Cpd 60, 3-(2-methyl-6-((5-(2,2,2-trifluoroethoxy)-3-pyridazinyl)amino)-4-pyrimidinyl)-N-1H-pyrazol-3-ylimidazo[1,2-b]pyridazin-2-amine] was 20 nM. Next, `Cc1nc(N)nc(-c2c(Nc3cc[nH]n3)nc3ccc(C4=CCN(C(=O)OC(C)(C)C)CC4)cn23)n1` [Cpd 97, tert-butyl 4-(3-(4-amino-6-methyl-1,3,5-triazin-2-yl)-2-(1H-pyrazol-3-ylamino)imidazo[1,2-a]pyridin-6-yl)-3,6-dihydro-1(2H)-pyridinecarboxylate]: 30 nM.

Regarding `Cc1nc(N)cc(-c2c(Nc3ccc4cc[nH]c4n3)nc3ccccn23)n1` [Cpd 41, 3-(6-amino-2-methyl-4-pyrimidinyl)-N-1H-pyrrolo[2,3-b]pyridin-6-ylimidazo[1,2-a]pyridin-2-amine], the 50% inhibitory concentration (IC50) worked out at 400 nM. Take `COCC(=O)Nc1cc(-c2c(Nc3ccn(C)n3)nc3cccnn23)nc(C)n1` [Cpd 123, 2-methoxy-N-(2-methyl-6-(2-((1-methyl-1H-pyrazol-3-yl)amino)imidazo[1,2-b]pyridazin-3-yl)-4-pyrimidinyl)acetamide]: the IC50 is 150 nM. On to `Cc1nc(N)cc(-c2c(Nc3ccn(C(=O)NCc4ccccc4)n3)nc3ccccn23)n1` [Cpd 222, 3-((3-(6-amino-2-methyl-4-pyrimidinyl)imidazo[1,2-a]pyridin-2-yl)amino)-N-benzyl-1H-pyrazole-1-carboxamide], for which the concentration for half-maximal inhibition (IC50) stood at 1810 nM. The value for `Cc1nc(N)nc(-c2c(Nc3cc[nH]n3)nc3ccc(-c4ccoc4)cn23)n1` [Cpd 105, 3-(4-amino-6-methyl-1,3,5-triazin-2-yl)-6-(3-furanyl)-N-1H-pyrazol-3-ylimidazo[1,2-a]pyridin-2-amine] was 50 nM. The value for `CC(=O)Nc1cc(-c2c(Nc3ccn(C)n3)nc3c(F)cccn23)nc(C)n1` [Cpd 63, N-(6-(8-fluoro-2-((1-methyl-1H-pyrazol-3-yl)amino)imidazo[1,2-a]pyridin-3-yl)-2-methyl-4-pyrimidinyl)acetamide] was 50 nM. The value for `CNC(=O)c1cc(Nc2ccn[nH]2)n(-c2cc(N)nc(C)n2)n1` [Cpd 14, 5-(1H-pyrazol-5-ylamino)-1-(6-amino-2-methylpyrimidin-4-yl)-N-methyl-1H-pyrazole-3-carboxamide] was 440 nM. In the case of `Cc1nc(N)nc(-c2c(Nc3cc[nH]n3)nc3ccc(-c4ccc5c(c4)CCNC5=O)cn23)n1` [Cpd 175, 6-(3-(4-amino-6-methyl-1,3,5-triazin-2-yl)-2-(1H-pyrazol-3-ylamino)imidazo[1,2-a]pyridin-6-yl)-3,4-dihydro-1(2H)-isoquinolinone], the IC50 was 30 nM.

For `Cc1nc(N)cc(-c2c(Nc3ccn(-c4ccccn4)n3)nc3ccccn23)n1` [Cpd 216, 3-(6-amino-2-methyl-4-pyrimidinyl)-N-(1-(2-pyridinyl)-1H-pyrazol-3-yl)imidazo[1,2-a]pyridin-2-amine], the half-maximal inhibitory concentration (IC50) is 450 nM.
